How the values were obtained:
Experiment in all cases: SelectScreen kinase profiling
Type in all cases: biochemical
EPHB2 = EPHB2 (Homo sapiens, UniProt P29323)
Protocol: (§1) The kinase selectivity analysis of LTM-1 was performed utilizing the SelectScreen Kinase Profiling Service offered by Thermo Fisher Scientific. In a dose-response assay featuring a ten-point dilution series from 0.25 μM to 128 μM, the inhibitory effects of LTM-1 on substrate phosphorylation reactions catalyzed by a panel of kinases were assessed. Consequently, the half-maximal inhibitory concentrations (IC50 values) for each kinase were determined.

LTK = LTK (Homo sapiens, UniProt P29376)
Protocol: as §1

CDK6 = CDK6 (Homo sapiens, UniProt Q00534)
Protocol: as §1

ABL1 = ABL1 (Homo sapiens, UniProt P00519)
Protocol: as §1

CDK3 = CDK3 (Homo sapiens, UniProt Q00526)
Protocol: as §1

CSF1R = CSF1R (Homo sapiens, UniProt P07333)
Protocol: as §1

PIM1 = PIM1 (Homo sapiens, UniProt P11309)
Protocol: as §1

ERBB2 = ERBB2 (Homo sapiens, UniProt P04626)
Protocol: as §1

JAK1 = JAK1 (Homo sapiens, UniProt P23458)
Protocol: as §1

CDK13 = CDK13 (Homo sapiens, UniProt Q14004)
Protocol: as §1

CDK1 = CDK1 (Homo sapiens, UniProt P06493)
Protocol: as §1

MERTK = MERTK (Homo sapiens, UniProt Q12866)
Protocol: as §1

PTK2 = PTK2 (Homo sapiens, UniProt Q05397)
Protocol: as §1

FYN = FYN (Homo sapiens, UniProt P06241)
Protocol: as §1

NTRK2 = NTRK2 (Homo sapiens, UniProt Q16620)
Protocol: as §1

EPHB1 = EPHB1 (Homo sapiens, UniProt P54762)
Protocol: as §1

FGFR2 = FGFR2 (Homo sapiens, UniProt P21802)
Protocol: as §1

EPHB4 = EPHB4 (Homo sapiens, UniProt P54760)
Protocol: as §1

CDK4 = CDK4 (Homo sapiens, UniProt P11802)
Protocol: as §1

FGFR4 = FGFR4 (Homo sapiens, UniProt P22455)
Protocol: as §1

CDK19 = CDK19 (Homo sapiens, UniProt Q9BWU1)
Protocol: as §1

ABL2 = ABL2 (Homo sapiens, UniProt P42684)
Protocol: as §1

RAF1 = RAF1 (Homo sapiens, UniProt P04049, Y340D/Y341D)
Protocol: as §1

JAK2 = JAK2 (Homo sapiens, UniProt O60674)
Protocol: as §1

ERBB4 = ERBB4 (Homo sapiens, UniProt Q15303)
Protocol: as §1

FRK = FRK (Homo sapiens, UniProt P42685)
Protocol: as §1

FGR = FGR (Homo sapiens, UniProt P09769)
Protocol: as §1

DDR2 = DDR2 (Homo sapiens, UniProt Q16832)
Protocol: as §1

PLK1 = PLK1 (Homo sapiens, UniProt P53350)
Protocol: as §1

EPHA1 = EPHA1 (Homo sapiens, UniProt P21709)
Protocol: as §1

JAK3 = JAK3 (Homo sapiens, UniProt P52333)
Protocol: as §1

ROS1 = ROS1 (Homo sapiens, UniProt P08922)
Protocol: as §1

BMX = BMX (Homo sapiens, UniProt P51813)
Protocol: as §1

ITK = ITK (Homo sapiens, UniProt Q08881)
Protocol: as §1

AXL = AXL (Homo sapiens, UniProt P30530)
Protocol: as §1

CDK2 = CDK2 (Homo sapiens, UniProt P24941)
Protocol: as §1

CDK12 = CDK12 (Homo sapiens, UniProt Q9NYV4)
Protocol: as §1

FES = FES (Homo sapiens, UniProt P07332)
Protocol: as §1

CDK7 = CDK7 (Homo sapiens, UniProt P50613)
Protocol: as §1

LYN = LYN (Homo sapiens, UniProt P07948)
Protocol: as §1

KDR = KDR (Homo sapiens, UniProt P35968)
Protocol: as §1

NTRK3 = NTRK3 (Homo sapiens, UniProt Q16288)
Protocol: as §1

CDK5 = CDK5 (Homo sapiens, UniProt Q00535)
Protocol: as §1

Measured: IC50

ITK, sequence (Q08881 whole entry): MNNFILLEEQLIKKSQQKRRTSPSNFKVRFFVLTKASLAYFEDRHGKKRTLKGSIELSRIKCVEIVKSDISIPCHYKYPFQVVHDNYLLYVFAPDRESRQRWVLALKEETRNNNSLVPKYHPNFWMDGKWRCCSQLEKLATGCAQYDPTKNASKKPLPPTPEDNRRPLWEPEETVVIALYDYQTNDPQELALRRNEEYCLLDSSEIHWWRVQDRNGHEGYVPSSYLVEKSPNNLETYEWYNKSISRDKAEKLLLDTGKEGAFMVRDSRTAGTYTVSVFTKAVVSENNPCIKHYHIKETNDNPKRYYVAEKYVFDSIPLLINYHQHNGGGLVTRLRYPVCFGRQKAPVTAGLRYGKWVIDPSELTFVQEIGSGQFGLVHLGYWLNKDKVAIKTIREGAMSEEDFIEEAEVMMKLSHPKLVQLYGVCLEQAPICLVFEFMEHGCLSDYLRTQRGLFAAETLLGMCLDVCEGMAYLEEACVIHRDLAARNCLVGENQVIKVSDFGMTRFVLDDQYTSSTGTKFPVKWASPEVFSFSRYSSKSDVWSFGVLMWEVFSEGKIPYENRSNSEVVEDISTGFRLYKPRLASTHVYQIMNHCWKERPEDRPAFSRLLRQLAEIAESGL
BMX, sequence (P51813 whole entry): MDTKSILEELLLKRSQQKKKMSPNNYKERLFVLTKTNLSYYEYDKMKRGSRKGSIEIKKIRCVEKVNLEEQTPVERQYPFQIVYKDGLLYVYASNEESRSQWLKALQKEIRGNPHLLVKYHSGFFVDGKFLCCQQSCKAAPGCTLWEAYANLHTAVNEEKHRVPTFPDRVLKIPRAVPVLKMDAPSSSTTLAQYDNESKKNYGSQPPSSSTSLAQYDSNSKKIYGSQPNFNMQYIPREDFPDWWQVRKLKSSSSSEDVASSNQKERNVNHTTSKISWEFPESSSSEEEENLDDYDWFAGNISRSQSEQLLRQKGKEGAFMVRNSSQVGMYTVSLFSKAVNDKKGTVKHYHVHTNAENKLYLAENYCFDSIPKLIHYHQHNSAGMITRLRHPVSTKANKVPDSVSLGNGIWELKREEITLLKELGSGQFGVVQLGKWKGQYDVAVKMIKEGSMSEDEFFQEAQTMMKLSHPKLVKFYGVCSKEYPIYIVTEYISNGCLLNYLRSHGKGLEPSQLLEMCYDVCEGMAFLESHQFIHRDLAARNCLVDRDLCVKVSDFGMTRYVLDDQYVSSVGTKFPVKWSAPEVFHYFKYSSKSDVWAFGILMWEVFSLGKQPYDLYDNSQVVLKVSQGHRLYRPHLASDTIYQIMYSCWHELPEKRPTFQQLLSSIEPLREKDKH
CDK1, sequence (P06493 whole entry): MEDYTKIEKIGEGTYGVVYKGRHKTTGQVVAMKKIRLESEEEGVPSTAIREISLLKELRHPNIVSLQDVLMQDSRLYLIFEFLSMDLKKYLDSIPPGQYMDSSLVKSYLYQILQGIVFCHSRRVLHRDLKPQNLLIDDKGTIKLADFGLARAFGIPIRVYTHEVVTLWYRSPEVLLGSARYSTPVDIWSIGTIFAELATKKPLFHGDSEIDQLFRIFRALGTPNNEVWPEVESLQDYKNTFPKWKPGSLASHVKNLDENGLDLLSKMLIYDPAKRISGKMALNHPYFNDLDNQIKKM
CDK1, sequence (P14635 whole entry partner): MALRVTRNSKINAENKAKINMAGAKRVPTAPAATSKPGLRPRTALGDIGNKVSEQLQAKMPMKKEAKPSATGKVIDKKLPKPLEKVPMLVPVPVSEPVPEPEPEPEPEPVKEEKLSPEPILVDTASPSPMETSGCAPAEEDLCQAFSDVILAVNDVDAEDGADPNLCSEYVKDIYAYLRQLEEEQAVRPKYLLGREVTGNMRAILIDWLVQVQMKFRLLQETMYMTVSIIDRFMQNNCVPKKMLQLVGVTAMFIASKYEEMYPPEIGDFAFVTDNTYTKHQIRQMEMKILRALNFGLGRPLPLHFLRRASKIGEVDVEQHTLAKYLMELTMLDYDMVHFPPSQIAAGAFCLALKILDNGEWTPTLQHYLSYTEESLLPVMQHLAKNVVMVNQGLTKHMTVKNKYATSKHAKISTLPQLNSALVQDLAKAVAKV
PTK2, sequence (Q05397 whole entry): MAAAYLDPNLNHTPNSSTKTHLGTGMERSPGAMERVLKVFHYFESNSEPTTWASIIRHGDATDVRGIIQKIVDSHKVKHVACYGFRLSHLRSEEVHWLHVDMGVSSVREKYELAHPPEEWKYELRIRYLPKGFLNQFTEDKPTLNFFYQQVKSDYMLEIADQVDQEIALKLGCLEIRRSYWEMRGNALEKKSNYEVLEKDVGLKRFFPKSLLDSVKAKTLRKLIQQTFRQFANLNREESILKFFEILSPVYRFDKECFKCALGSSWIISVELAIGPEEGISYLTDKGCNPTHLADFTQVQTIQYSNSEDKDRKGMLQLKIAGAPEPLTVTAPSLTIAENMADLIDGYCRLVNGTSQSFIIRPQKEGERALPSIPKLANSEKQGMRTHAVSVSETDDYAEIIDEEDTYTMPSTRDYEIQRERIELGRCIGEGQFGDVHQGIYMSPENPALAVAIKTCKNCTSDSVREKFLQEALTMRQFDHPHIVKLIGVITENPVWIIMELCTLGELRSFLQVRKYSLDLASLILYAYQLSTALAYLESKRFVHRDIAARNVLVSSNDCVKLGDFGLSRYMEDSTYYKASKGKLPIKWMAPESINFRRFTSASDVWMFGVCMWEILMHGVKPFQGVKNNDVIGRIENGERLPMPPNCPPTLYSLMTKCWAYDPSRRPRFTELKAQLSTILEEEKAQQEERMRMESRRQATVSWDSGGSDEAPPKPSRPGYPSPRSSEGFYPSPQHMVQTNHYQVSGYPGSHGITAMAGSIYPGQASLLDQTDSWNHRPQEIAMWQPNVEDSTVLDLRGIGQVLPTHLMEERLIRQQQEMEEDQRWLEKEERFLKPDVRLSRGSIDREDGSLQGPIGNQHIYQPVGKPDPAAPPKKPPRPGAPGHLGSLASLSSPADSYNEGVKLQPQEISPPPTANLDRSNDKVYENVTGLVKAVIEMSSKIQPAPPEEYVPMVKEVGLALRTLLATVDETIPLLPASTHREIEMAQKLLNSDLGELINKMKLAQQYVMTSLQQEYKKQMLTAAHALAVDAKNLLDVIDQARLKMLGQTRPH
CDK19, sequence (Q9BWU1 whole entry): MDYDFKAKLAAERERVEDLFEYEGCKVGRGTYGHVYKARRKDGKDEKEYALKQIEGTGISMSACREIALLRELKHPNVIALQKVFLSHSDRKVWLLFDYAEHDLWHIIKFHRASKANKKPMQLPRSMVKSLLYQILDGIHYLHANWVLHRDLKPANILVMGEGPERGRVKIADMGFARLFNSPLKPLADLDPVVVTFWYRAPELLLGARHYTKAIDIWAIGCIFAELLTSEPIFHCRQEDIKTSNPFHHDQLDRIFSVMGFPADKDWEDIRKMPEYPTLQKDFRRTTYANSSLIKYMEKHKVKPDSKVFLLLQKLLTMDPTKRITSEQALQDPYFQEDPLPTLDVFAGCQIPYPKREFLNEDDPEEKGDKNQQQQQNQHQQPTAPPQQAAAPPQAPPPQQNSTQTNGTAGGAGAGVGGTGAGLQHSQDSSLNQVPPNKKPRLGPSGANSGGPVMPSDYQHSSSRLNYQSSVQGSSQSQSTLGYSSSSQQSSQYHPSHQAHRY
CDK19, sequence (P24863 whole entry partner): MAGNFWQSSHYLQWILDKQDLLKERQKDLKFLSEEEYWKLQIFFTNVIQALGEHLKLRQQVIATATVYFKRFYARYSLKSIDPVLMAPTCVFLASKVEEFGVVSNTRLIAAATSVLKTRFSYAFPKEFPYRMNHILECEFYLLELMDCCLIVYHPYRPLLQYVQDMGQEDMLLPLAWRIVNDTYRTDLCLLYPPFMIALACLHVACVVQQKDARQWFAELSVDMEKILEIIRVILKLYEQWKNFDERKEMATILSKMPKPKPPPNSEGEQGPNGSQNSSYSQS
CDK6, sequence (Q00534 whole entry): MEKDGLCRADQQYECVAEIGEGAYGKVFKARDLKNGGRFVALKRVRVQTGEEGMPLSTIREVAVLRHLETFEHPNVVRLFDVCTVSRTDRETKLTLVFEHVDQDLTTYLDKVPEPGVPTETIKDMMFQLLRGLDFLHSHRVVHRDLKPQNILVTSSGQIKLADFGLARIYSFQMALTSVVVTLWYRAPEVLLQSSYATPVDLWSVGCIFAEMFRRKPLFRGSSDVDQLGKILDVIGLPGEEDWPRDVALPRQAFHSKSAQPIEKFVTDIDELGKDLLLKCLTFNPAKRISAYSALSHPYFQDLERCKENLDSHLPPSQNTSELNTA
CDK6, sequence (P24385 whole entry partner): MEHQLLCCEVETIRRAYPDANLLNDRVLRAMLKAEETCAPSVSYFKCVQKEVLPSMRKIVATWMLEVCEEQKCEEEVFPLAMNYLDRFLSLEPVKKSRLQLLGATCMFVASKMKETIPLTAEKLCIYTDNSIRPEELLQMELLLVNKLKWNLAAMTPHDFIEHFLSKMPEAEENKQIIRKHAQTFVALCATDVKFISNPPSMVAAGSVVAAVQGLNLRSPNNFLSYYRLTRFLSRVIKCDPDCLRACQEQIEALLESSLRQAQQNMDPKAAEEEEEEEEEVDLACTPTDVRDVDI
PIM1, sequence (P11309 whole entry): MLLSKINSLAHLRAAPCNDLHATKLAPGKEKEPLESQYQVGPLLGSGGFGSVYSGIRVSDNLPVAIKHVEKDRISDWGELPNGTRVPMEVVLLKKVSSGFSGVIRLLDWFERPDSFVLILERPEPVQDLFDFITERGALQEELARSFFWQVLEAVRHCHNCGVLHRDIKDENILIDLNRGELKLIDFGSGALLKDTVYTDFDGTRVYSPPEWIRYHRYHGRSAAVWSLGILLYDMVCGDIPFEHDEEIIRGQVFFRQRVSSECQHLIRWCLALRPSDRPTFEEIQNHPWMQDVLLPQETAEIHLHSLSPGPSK

O=S(=O)(c1ccc(C(O)CO)c(C(F)(F)F)c1)N1CCc2cc(C3CC3NCC3CCNCC3)ccc21 (stereo not shown) [LTM-1]
> 10 µM: all assays above
